Measured values reported in ChEMBL document CHEMBL1201862, “PubChem BioAssay data set” (2004).
Structures can show the parent of a compound that is named as a salt. Active and inactive are the calls of the source.

Assays:
[1] = MITF Measured in Cell-Based System Using Plate Reader - 2084-01_Inhibitor_Dose_DryPowder_Activity_Set7.; format: functional
[2] = cytotoxicity in MITF-independent A375 cells – cell-based, CellTiter-Glo luminescence, dry powder, set 4, counter-screen for MITF inhibitor project, dose response (AID 624364); format: functional; settings: A-375;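 also: A375 melanoma cells are MITF independent so this is a counter screen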
[3] = cytotoxicity in melanoma parental cells – cell-based, CellTiter-Glo, dry powder, set 6, MITF inhibitor project, dose response (AID 624429); format: functional; settings: SK-MEL-5
[4] = MITF Measured in Cell-Based System Using Plate Reader - 2084-01_Inhibitor_Dose_DryPowder_Activity_Set6.; format: functional
[5] = growth inhibition of SK-MEL-5 melanoma cells – cell-based, CellTiter-Glo luminescence, dry powder, set 8, orthogonal assay for MITF inhibitor project, dose response (AID 651586); format: functional
[6] = MITF Orthogonal Assay: MALME3 CTG Assay Measured in Cell-Based System Using Plate Reader - 2084-04_Inhibitor_Dose_DryPowder_Activity_Set6.; format: functional; settings: MALME-3
[7] = viability loss in MITF-independent A375 cells – cell-based, CellTiter-Glo luminescence, dry powder, set 7, counter-screen for MITF inhibitor project, dose response (AID 624490); format: functional; settings: A-375
[8] = growth inhibition of MALME3 cells – cell-based, CellTiter-Glo luminescence, dry powder, set 5, orthogonal assay for MITF inhibitor project, dose response (AID 651584); format: functional; settings: MALME-3
[9] = MITF Orthogonal Assay: SK-MEL-5 CTG Assay Measured in Cell-Based System Using Plate Reader - 2084-02_Inhibitor_Dose_DryPowder_Activity_Set5.; format: functional
[10] = cytotoxicity in MITF-independent A375 cells – cell-based, CellTiter-Glo luminescence, dry powder, set 9, counter-screen for MITF modulator project, dose response (AID 651591); format: functional; settings: A-375
[11] = viability loss in MITF-independent A375 cells – cell-based, CellTiter-Glo luminescence, dry powder, set 2, counter-screen for MITF inhibitor project, dose response (AID 624489); format: functional; settings: A-375;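 also: actives are compounds lowering A375 viability meaning general cytotoxicity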
[12] = viability loss in MITF-independent A375 cells – cell-based, CellTiter-Glo luminescence, dry powder, set 6, counter-screen for MITF inhibitor project, dose response (AID 624488); format: functional; settings: A-375
[13] = inhibitors of TRPM1-promoter reporter in SK-MEL-5 – cell-based, luciferase, dry powder, set 9, MITF inhibitor project, dose response (AID 651588); format: functional
[14] = IC50 of Artemis nuclease activity blockers – biochemical, fluorescence intensity, dose response (AID 720701); format: functional;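 also: Artemis endonuclease enzyme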
[15] = Plasmodium falciparum Dd2 Sybr green parasite growth Measured in Cell-Based and Microorganism Combination System Using Plate Reader - 2153-01_Inhibitor_Dose_DryPowder_Activity_Set3.; format: functional
[16] = Dd2 malaria parasite growth inhibition potency – SYBR Green, dry powder samples, dose response (AID 1159566); format: functional, cell-based;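 also: potency for growth inhibition with lower SYBR green DNA signal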
[17] = toxicity to human HepG2 hepatoma cells – cell-based, plate reader, dry powder samples, cytotoxicity control, dose response (AID 1159569); format: functional;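 also: inhibitor potency with signal falling toward the positive control level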
[18] = growth inhibition of PfATP4-mutant resistant parasites – NITD609-resistant line, SYBR Green, dry powder, dose response (AID 1159571); format: functional, cell-based;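 also: parasites synchronized at ring stage by sorbitol before testing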
[19] = P. falciparum Dd2 growth inhibitors, dose response, SYBR Green, cherry-picked samples (AID 1159567); format: functional, cell-based
[20] = Dd2 parasite growth inhibition in erythrocytes – SYBR Green, dry powder samples, set 9, dose response (AID 1159568); format: functional, cell-based
[21] = toxicity to human hepatoma HepG2 cells – cell-based, cherry-picked samples, cytotoxicity control, dose response (AID 1159577); format: functional
[22] = growth inhibition of yeast DHODH-expressing 3D7 parasites – SYBR Green, dry powder samples, dose response (AID 1159570); format: functional, cell-based;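 also: parasite growth measured after 72 hours of compound exposure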
[23] = Dd2 parasite growth inhibition in erythrocytes – SYBR Green, dry powder samples, set 4, dose response (AID 1159572); format: functional, cell-based
[24] = toxicity to HepG2 liver cells – cell-based, plate reader, dry powder, set 6, cytotoxicity control, dose response (AID 743311); format: functional
[25] = toxicity to A549 lung cells – cell-based, plate reader, dry powder, set 6, cytotoxicity control, dose response (AID 743312); format: functional
cells = settings: HEK293
[26] = biological target: FAD-linked sulfhydryl oxidase ALR (Homo sapiens, UniProt P55789); test: ALR-catalysed DTT oxidation blockers – biochemical, H2O2 detection, luminescence, cherry-pick, dose response (AID 493248)
FAD-linked sulfhydryl oxidase ALR, sequence (P55789 whole entry): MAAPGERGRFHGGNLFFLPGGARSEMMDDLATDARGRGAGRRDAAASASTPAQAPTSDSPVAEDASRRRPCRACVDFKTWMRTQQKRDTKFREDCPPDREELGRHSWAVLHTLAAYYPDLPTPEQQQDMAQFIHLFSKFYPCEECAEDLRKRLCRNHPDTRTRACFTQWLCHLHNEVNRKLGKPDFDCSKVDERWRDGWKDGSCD

[27] = alpha-synuclein stem-loop luciferase translation blockers – H4 neuroglioma cells, luminescence, confirmation (AID 1988); format: functional, cell-based
[28] = rise of 2N DNA cells, HeLa – IC50, dose response (AID 1117349); format: functional, cell-based
P388/ADR = test: cells; format: functional; settings: Mus musculus
SN12K1 = test: cells; format: functional; settings: Homo sapiens
[29] = rise of 4N DNA cells, HeLa – IC50, dose response (AID 1117351); format: functional, cell-based
P388 = test: cells; format: functional; settings: Mus musculus
[30] = Luminescence Cell-Based Dose Response HTS to Identify Inhibitors of 5'UTR Stem-Loop Driven Prion Protein mRNA Translation in H4 Neuroglioblastoma Cells. [Related pubchem assays: 1827 (Project Summary), 1813 (Primary HTS)]; format: functional
[31] = luciferase reporter signal suppression in cells – H4 neuroglioma cells, luminescence, dose response (AID 1990); format: functional, cell-based
[32] = cytotoxicity toward HT-29 cells – cell-based, CellTiter-Glo luminescence, IC50, dose response (AID 1117330); format: functional
[33] = SNU-C1 cell viability reduction, dose response, CellTiter-Glo luminescence (AID 1117323); format: functional, cell-based
[34] = RKO cell viability reduction, dose response, CellTiter-Glo luminescence (AID 1117322); format: functional
[35] = cytotoxicity toward Colo320 cells – cell-based, CellTiter-Glo luminescence, IC50, dose response (AID 1117334); format: functional; settings: COLO 320
[36] = cytotoxicity toward HCT116 cells – cell-based, CellTiter-Glo luminescence, IC50, dose response (AID 1117332); format: functional; settings: HCT-116
[37] = Reduced DLD-1 viability, concentration-response, CellTiter-Glo luminescence (AID 1117352); format: functional
[38] = HCT116 cell viability decrease, GSK3B pretreatment – CellTiter-Glo, IC50, dose response (AID 1117339); format: functional; settings: HCT-116
[39] = CellTiter-Glo luminescence survival assay, SW480 colon tumor line, concentration-response curve, half-maximal inhibitory concentration (AID 1117338); format: functional

CN1CCN(C2=C(NS(=O)(=O)c3ccc(Br)s3)C(=O)c3ccccc3C2=O)CC1
AC50 [1]: 2.26 µM (active)
AC50 [2]: 65 µM (active)
AC50 [3]: 64.7 µM (active)
AC50 [4]: 1.94 µM (active)
AC50 [5]: 36.8 µM (active)
AC50 [6]: 12 µM (active)
AC50 [7]: > 70 µM (inactive)
AC50 [8]: 12 µM (active)
AC50 [9]: 11.2 µM (active)
AC50 [10]: > 70 µM (inactive)
AC50 [11]: 47.4 µM (active)
AC50 [12]: 26.3 µM (active)
AC50 [13]: 8.02 µM (active)

COc1ccc(/C=N/NC(=O)c2nc(-c3ccccc3)cc(-c3ccccc3)n2)cc1
IC50 [14]: > 20 µM (inactive)

COc1ccc(-c2ccc([C@H]3[C@@H](C#N)N(C(=O)NC(C)C)[C@H]3CO)cc2)cc1
AC50 [15]: 1.86 µM (active)
AC50 [16]: 0.559 µM (active)
AC50 [17]: 80.6 µM (active)
AC50 [18]: 0.874 µM (active)
AC50 [19]: 0.89 µM (active)
AC50 [20]: 1.2 µM (active)
AC50 [21]: 3.33 µM (active)
AC50 [22]: 3.98 µM (active)

CCC(=O)N1CC2(CCN(C(=O)Nc3ccccc3F)CC2)c2c([nH]c3cc(OC)ccc23)[C@@H]1CO
AC50 [23]: 0.294 µM (active)
AC50 [20]: 0.561 µM (active)

Cc1cc2ncn(CCOc3ccccc3C)c2cc1C
AC50 [24]: 36.5 µM (active)
AC50 [25]: 11.4 µM (active)
AC50 (cells): 47.4 µM (active)

O=C(O)CCCc1ccc(N(CCCl)CCCl)cc1 [CHLORAMBUCIL]
AC50 [26]: < 0.005 µM (active)
EC50 [27]: 32.6 µM (active)
IC50 [28]: > 10 µM (inactive)
GI50 (P388/ADR): 6.25 µM (inactive)
GI50 (SN12K1): 49.5 µM (inactive)
IC50 [29]: > 10 µM (inactive)
GI50 (P388): 3.73 µM (inactive)
EC50 [30]: > 120 µM (not active)
EC50 [31]: > 120 µM (not active)

CNS(=O)(=O)CCc1ccc2[nH]cc(C3CCN(C)CC3)c2c1 [NARATRIPTAN HYDROCHLORIDE]
IC50 [32]: > 20 µM (inactive)
IC50 [33]: > 20 µM (inactive)
IC50 [34]: > 20 µM (inactive)
IC50 [35]: > 20 µM (inactive)
IC50 [36]: > 20 µM (inactive)
IC50 [37]: > 20 µM (inactive)
IC50 [38]: 12.1 µM (inactive)
IC50 [39]: > 20 µM (inactive)
